Test results: patent publication US20240009223A1, “6-THIO-2'-DEOXYGUANOSINE (6-THIO-DG) RESULTS IN TELOMERASE DEPENDENT TELOMERE DYSFUNCTION AND CELL DEATH IN VARIOUS MODELS OF THERAPY-RESISTANT CANCER CELLS” (The Board of Regents of The University of Texas System, priority 2016, published 2024)

Legend:
[1] = tested on: LOX-IMVI BR cells; assay: Telomere dysfunction Induced Foci (TIF) assay / γ-H2AX DNA damage foci; type: cell-based, human; conditions: 5 μM, compared to the control
Method: Telomere dysfunction Induced Foci (TIF) Assay. The TIF assay is based on the co-localization detection of DNA damage by an antibody against gamma-H2AX, and telomeres using FITC-conjugated telomere sequence ([…])3-specific peptide nucleic acid (PNA) probe. Briefly, LOX-IMVI-BR cells were seeded to 6-well plate (50,000 cells/well). After cells adhered to the surface (next day), 6-thio-dG was added with fresh medium. Cells were treated with or without 6-thio-dG at 5 μM every two days for 4 days. Then cells were harvested and cell numbers were counted. 100,000 cells were re-plated in 4-well chamber slides. After cells adhered to the chamber slide (next day), cells were rinsed twice with 1×PBS and fixed in 4% paraformaldehyde in PBS for 10 minutes. Cells were washed twice with PBS and permeabilized in 0.5% Triton X-100 in PBS for 10 minutes. Following permeabilization, cells were washed three times with PBS. Cells were blocked with 0.2% Fish gelatin and 0.5% BSA in PBS for 30 minutes. Gamma-H2AX (mouse) (Millipore, Billerica, MA) was diluted 1:1000 in blocking solution and incubated with cells for 2 hrs. […] Cells were fixed in 4% paraformaldehyde in PBS for 20 minutes at room temperature. […] Images were captured with Deltavision wide-field microscope using the 60× objective, then deconvoluted using Autoquant X3. Gamma-H2AX and TIFs were quantified using Imaris software.

[2] = tested on: normal epidermal melanocytes; assay: FACS analysis of apoptosis and cell death, normal melanocytes; type: cell-based; conditions: 120 hours
Method: Cells were then harvested and co-stained with PSVue643 and Propidium iodide (PI). Representative samples of 2 independent experiments.
(§1) FACS Analysis of Apoptosis and Cell Death. Adherent cells were harvested with 0.05% Trypsin-EDTA, pooled with floating cells and then washed once with 1×DPBS. Cells were then pelleted and stained with PSVue® 643 at 0.5 μM and Propidium iodide at 50 ug/ml diluted in TES buffer for 5 min in the dark. Cells were then immediately subjected to FACS analysis using a BD LSR II flow cytometer and at least 5,000 cells per sample were acquired.

[3] = tested on: 16 BRAF-mutant melanoma cell lines; assay: Long-term cell growth assay, 16 BRAF-mutant melanoma cell lines (vs PLX4720); type: cell-based, human; conditions: 9 to 12 days
Method: (§2) FIGS. 3A-3E show long-term cell growth assay of 16 BRAF-mutant melanoma cell lines that were treated with 6-thio-dG or PLX4720 at indicated doses for 12 days (FIG. 3A). […] Cells were then harvested and co-stained with PSVue643 and Propidium iodide (PI). The average of 2 biological replicates are representative of 2 independent experiments; SA-β-gal staining of 4 BRAF-mutant melanoma cell lines treated with 6-thio-dG at 5 μM for 9 days (FIG. 3D).
Treatment of BRAF-mutant Melanoma Cells with 6-thio-dG Impairs Cell Viability and Tumor Growth. By investigating BRAF-mutant melanoma cell lines, the efficacy of 6-thio-dG was compared with that of the BRAF inhibitor, PLX4720. Another cohort of 16 BRAF-mutant melanoma cell lines was treated with 6-thio-dG and […] for 9 to 12 days, respectively.

[4] = tested on: ten melanoma cell lines that acquired resistance to PLX4720 and WM1366 MR; assay: Long-term cell growth assay, MAPKi-resistant melanoma cell lines; type: cell-based, human; conditions: 12 days
[5] = tested on: mouse pancreatic cancer cell line G43; assay: Long-term cell growth assay of G43 cells; type: cell-based; conditions: in vitro, 9 days
Description: This work was further extended to non-melanoma therapy-resistant cancer cells in order to evaluate the efficacy of 6-thio-dG more broadly. The mouse pancreatic cancer cell line G43 was established from mouse pancreatic tumors harboring mutations in KRAS and P53 that progressed on radiation therapy and subsequently ipilimumab.

[6] = tested on: LOX-IMVI BR cells; assay: Telomere length quantification (qPCR); type: cell-based, human; conditions: 5 μM, 120 hours
Method: Telomere length quantification. Telomere length was measured by the ratio of the telomeric DNA and a single copy gene, 36B4. The forward and reverse primers used for amplifying telomeric DNA were tel1b and tel2b. The quantification of telomeric DNA and 36B4 was determined by quantitative real time PCR on Applied Biosystems 7500 Fast Real-Time PCR System. The reaction mixtures (20 μL final volume) contained 10 μL Fast SYBR® Green Master Mix, 500 nM each primer and 10 ng genomic DNA. The reaction conditions were 95° C. for 20 s, followed by 40 cycles of 95° C. for 3 s and 60° C. for 30 s. The telomere length was analyzed by 2^−ΔΔCt method.

[7] = tested on: UACC-903 BR xenografts; assay: UACC-903 BR xenograft tumor volume; type: in vivo, human; conditions: UACC-903 BR xenografts in mice
Method: (§3) Melanoma Xenotransplantation and In vivo Studies. 100,000 melanoma cells were harvested from cell culture and re-suspended in culture medium and Matrigel at a 1:1 ratio. Cells were subcutaneously injected into mice, which were treated with indicated inhibitors when the tumor volume reached 100 mm^3. Mice were sacrificed at the end time point and solid tumors were collected. All animal experiments were performed in accordance with Wistar IACUC protocol 112330 in NOD.[…] 1 Wjl/SzJ mice.

[8] = tested on: A375 melanoma cells; assay: FACS analysis of apoptosis, A375 time-course; type: cell-based, human; conditions: post-treatment
Method: as §2, §1
In a time-course experiment, it was shown that the induction of apoptosis started to occur as early as 48 hour post-treatment (FIG. 3C).

[9] = tested on: PEO4; assay: Relative cell viability, PEO4; type: cell-based, human; conditions: 5 days
Method: Additionally, the efficacy of 6-thio-dG was tested using two human ovarian cancer cell lines, PEO4 and PEO1-CR. PEO4 is a derivative line of BRCA1/2-mutant PEO1 that regains homologous recombination by BRCA reversion mutation. […] Importantly, all three cell lines were sensitive to 6-thio-dG after the 5-day treatment (FIGS. 14H-14J).

[10] = tested on: PLK1, PDGFRβ, ARID1A and AXL in A375, UACC-903 and WM9; assay: RPPA of 3 BRAF-mutant melanoma cell lines; type: cell-based, human; conditions: 120 hours
[11] = tested on: ARID1A and S6 signaling axis in WM4265-2 xenografts; assay: RPPA of WM4265-2 xenografts; type: in vivo, human
Description: Analysis of Gene Expression Microarray Data and Reverse Phase Protein Array (RPPA) Data. The raw data of gene expression microarrays generated from Illumina Chips were normalized, background-corrected and summarized using the R package “lumi”. […] To reduce false positives, the unexpressed probes were removed. The R package “limma” was employed for gene differential expression analysis, followed by multiple test correction by the Benjamini and Hochberg procedure. […] The inventors also conducted GSEA as previously reported. For GSEA, they analyzed gene sets obtained from the Molecular Signatures Database (world-wide-web at broadinstitute.org/gsea/msigdb/). The same differential expression analysis method was applied to RPPA data.

[12] = tested on: 15-1761-1-2 xenografts; assay: 15-1761-1-2 xenograft tumor volume; type: in vivo, human
Method: as §3

`Nc1nc2c(ncn2[C@H]2C[C@H](O)[C@@H](CO)O2)c(=S)[nH]1` [6-thio-dG, 6-thio-2′-deoxyguanosine] was tested, and the “DNA damage (γ-H2AX foci)” value [1] was “induced DNA damage”, the “telomere dysfunction-induced foci (TIFs)” value [1] was “increase in telomere dysfunction-induced foci” and the “cell viability of normal cells” value [2] was “did not impair the cell viability”. For the same compound, the cell proliferation [3] was “substantially inhibited cell proliferation”, the “efficacy compared with that of PLX4720” value [3] was “comparable to and in some cases even superior to” and the “cell viability (long-term cell growth)” value [4] was “impaired their viabilities”. The cell viability [5] was “impaired cell viability”, the telomere length [6] was “progressive telomere shortening” and the “in vivo growth of xenografts” value [7] was “significantly impaired the in vivo growth”. For the same compound, the “time at which induction of apoptosis started to occur” value [8] was 48 h, the “sensitivity (relative cell viability)” value [9] was “sensitive” and the “PLK1, PDGFRβ, ARID1A and AXL at the protein level (RPPA)” value [10] was “significantly down-regulated”. For the same compound, the “ARID1A and S6 signaling axis (RPPA)” value [11] was “down-regulated” and the “anti-tumor activity in xenografts” value [12] was “anti-tumor activity”.
